Assay results from patent US9550775B2, “Substituted triazolopyridines and methods of use thereof” (GENENTECH, INC., priority 2013, dated 2017).

molecular target: hNav1.7 (Homo sapiens (Human), UniProt Q15858); assay: Tritiated sulfonamide competitive binding to membranes from cells expressing hNav1.7 and the β1 subunit; settings: 100 pM [3H]compound, 18 h, room temperature; inactivated state of NaV1.7 membrane binding; read-out: NaV1.7 Ligand Binding Assay (IC50);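 further: displacement of the tritiated ligand from recombinant cell membranes, read by liquid scintillation counting of filter-bound radioactivity, nonspecific binding defined with 1 µM unlabelled compound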
Sequence (Q15858 other isoform, or with tags, fused parts or gaps): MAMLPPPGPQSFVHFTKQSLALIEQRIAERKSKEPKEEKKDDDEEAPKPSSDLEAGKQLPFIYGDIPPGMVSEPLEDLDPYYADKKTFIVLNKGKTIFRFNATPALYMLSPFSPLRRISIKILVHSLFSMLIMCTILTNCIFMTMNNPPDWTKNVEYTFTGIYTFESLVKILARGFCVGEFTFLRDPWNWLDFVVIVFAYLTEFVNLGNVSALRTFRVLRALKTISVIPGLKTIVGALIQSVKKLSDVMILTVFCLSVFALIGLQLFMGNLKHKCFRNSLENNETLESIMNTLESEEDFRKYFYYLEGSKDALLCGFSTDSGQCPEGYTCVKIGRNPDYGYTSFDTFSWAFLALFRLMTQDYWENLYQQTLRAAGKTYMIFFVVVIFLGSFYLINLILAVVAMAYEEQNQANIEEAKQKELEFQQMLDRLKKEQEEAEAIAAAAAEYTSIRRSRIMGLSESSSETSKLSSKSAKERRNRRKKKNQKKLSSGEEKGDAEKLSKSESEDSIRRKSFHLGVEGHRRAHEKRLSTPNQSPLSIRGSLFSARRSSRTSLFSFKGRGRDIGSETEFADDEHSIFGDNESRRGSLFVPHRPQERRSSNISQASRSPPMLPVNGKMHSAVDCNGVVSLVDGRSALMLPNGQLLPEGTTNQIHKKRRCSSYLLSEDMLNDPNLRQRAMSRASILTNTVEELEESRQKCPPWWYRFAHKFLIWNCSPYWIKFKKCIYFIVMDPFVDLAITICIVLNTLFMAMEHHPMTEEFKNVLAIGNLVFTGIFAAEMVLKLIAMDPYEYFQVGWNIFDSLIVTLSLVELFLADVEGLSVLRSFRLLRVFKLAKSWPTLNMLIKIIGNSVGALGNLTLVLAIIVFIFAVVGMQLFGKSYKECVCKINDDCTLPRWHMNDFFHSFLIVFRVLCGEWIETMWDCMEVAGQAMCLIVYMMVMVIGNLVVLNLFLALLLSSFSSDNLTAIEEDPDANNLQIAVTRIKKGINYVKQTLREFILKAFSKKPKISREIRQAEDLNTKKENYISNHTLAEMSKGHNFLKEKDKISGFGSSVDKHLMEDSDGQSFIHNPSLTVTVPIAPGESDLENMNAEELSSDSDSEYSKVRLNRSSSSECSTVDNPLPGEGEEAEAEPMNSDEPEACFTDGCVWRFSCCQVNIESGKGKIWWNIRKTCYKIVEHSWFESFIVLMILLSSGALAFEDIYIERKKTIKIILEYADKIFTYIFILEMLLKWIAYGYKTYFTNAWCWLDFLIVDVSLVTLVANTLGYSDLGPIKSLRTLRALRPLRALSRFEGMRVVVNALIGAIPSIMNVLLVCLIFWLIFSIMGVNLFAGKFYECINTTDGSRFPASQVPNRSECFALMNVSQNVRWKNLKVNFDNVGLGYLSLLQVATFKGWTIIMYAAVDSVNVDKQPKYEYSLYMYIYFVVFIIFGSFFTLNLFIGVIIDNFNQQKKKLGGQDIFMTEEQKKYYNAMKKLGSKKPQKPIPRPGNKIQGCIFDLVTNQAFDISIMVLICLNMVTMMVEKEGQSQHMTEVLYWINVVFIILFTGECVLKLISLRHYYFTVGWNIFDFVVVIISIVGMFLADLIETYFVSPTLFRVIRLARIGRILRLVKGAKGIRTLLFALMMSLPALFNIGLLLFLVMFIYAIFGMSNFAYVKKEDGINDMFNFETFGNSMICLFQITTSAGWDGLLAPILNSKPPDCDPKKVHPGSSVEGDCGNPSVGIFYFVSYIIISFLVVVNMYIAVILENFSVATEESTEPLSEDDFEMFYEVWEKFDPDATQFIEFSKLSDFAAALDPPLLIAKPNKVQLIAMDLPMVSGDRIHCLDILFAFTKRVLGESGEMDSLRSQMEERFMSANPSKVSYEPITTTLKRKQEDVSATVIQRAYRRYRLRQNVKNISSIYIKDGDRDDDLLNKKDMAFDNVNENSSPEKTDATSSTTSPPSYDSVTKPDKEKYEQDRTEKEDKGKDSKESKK
Sequence (Q07699 19-218 partner): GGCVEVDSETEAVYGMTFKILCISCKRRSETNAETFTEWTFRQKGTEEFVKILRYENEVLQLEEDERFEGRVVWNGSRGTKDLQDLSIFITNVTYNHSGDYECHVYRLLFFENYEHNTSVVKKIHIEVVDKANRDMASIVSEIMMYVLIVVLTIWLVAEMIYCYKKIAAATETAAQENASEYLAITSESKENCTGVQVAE

IC50 [nM] | Structure (SMILES)
90 | CS(=O)(=O)Nc1nnc2cc(OCC3CCCCC3)c(Br)cn12 [Example 61, N-(6-bromo-7-(cyclohexylmethoxy)-[1,2,4]triazolo[4,3-a]pyridin-3-yl)methanesulfonamide]
65 | C=Cc1cn2c(NS(C)(=O)=O)nnc2cc1OCC1(C)CCCCC1 [Example 62, N-(7-((1-methylcyclohexyl)methoxy)-6-vinyl-[1,2,4]triazolo-[4,3-a]pyridin-3-yl)methanesulfonamide]
51 | C=C(C)c1cn2c(NS(C)(=O)=O)nnc2cc1OCC12CC3CC(CC(C3)C1)C2 [Example 63, N-(7-((3r,5r,7r)-adamantan-1-ylmethoxy)-6-(prop-1-en-2-yl)-[1,2,4]triazolopyridin-3-yl)methanesulfonamide]
23 | CS(=O)(=O)Nc1nnc2cc(OC[C@H]3CC[C@H](C(F)(F)F)CC3)c(C3CC3)cn12 [Example 68, N-(6-cyclopropyl-7-(((trans)-4-(trifluoromethyl)cyclohexyl)methoxy)-[1,2,4]triazolo[4,3-a]pyridin-3-yl)methanesulfonamide]
140 | CCc1cn2c(NS(=O)(=O)N3CC(F)C3)nnc2cc1OCC12CC3CC(CC(C3)C1)C2 [Example 70, N-(7-((3r,5r,7r)-adamantan-1-ylmethoxy)-6-ethyl-[1,2,4]triazolo[4,3-a]pyridin-3-yl)-3-fluoroazetidine-1-sulfonamide]
4 | CCS(=O)(=O)Nc1nnc2cc(OCC34CC5CC(CC(C5)C3)C4)c(C3CC3)cn12 [Example 72, N-(7-((3r,5r,7r)-adamantan-1-ylmethoxy)-6-cyclopropyl-[1,2,4]triazolo[4,3-a]pyridin-3-yl)ethanesulfonamide]
7 | CC1(S(=O)(=O)Nc2nnc3cc(OCC45CC6CC(CC(C6)C4)C5)c(C4CC4)cn23)CC1 [Example 74, N-(7-((3r,5r,7r)-adamantan-1-ylmethoxy)-6-cyclopropyl-[1,2,4]triazolo[4,3-a]pyridin-3-yl)-1-methylcyclopropane-1-sulfonamide]
9 | CS(=O)(=O)Nc1nnc2cc(OCCC34CC5CC(CC(C5)C3)C4)c(C3CC3)cn12 [Example 76, N-(7-(2-43r,5r,7r)-adamantan-1-yl)ethoxy)-6-cyclopropyl-[1,2,4]triazolo[4,3-a]pyridin-3-yl)methanesulfonamide]
7 | O=S(=O)(Nc1nnc2cc(OCCC34CC5CC(CC(C5)C3)C4)c(C3CC3)cn12)C1CC1 [Example 77, N-(7-(2-((3r,5r,7r)-adamantan-1-yl)ethoxy)-6-cyclopropyl-[1,2,4]triazolo[4,3-a]pyridin-3-yl)cyclopropanesulfonamide]
66 | O=S(=O)(Nc1nnc2cc(OC3C4CC5CC(C4)CC3C5)c(C3CC3)cn12)C1CC1 (stereo not shown) [Example 79, N-(7-(adamantan-2-yloxy)-6-cyclopropyl-[1,2,4]triazolo-[4,3-a]pyridin-3-yl)cyclopropanesulfonamide]
5 | CS(=O)(=O)Nc1nnc2cc(OCC3CC4C5CCC(C5)C4C3)c(C3CC3)cn12 [Example 80, N-(6-cyclopropyl-7-(((2s,3aR,4S,7R,7aS)-octahydro-1H-4,7-methanoinden-2-yl)methoxy)-[1,2,4]triazolo[4,3-a]pyridin-3-yl)methanesulfonamide]
3 | CC1(C)[C@H]2CC[C@H](COc3cc4nnc(NS(C)(=O)=O)n4cc3C3CC3)[C@@H]1C2 [Example 83]
7 | CC1(C)[C@H]2CC[C@H](COc3cc4nnc(NS(=O)(=O)N5CCC5)n4cc3C3CC3)[C@@H]1C2 [Example 85, N-(6-cyclopropyl-7-(((1S,2S,5S)-6,6dimethylbicyclo [3.1.1]heptan-2-yl)methoxy)-[1,2,4]triazolopyridin-3-yl)azetidine-1-sulfonamide]
87 | CS(=O)(=O)Nc1nnc2cc(OC[C@H]3CC[C@H](C)CC3)c(Br)cn12 [Example 87]
18 | CS(=O)(=O)Nc1nnc2cc(OC[C@H]3CC[C@H](C)CC3)c(C3CC3)cn12 [Example 88]
51 | O=S(=O)(Nc1nnc2cc(OC3CCC4(CCCCC4)CC3)c(C3CC3)cn12)C1CC1 [Example 90, N-(6-cyclopropyl-7-(spiro[5.5]undecan-3-yloxy)-[1,2,4]triazolo[4,3-a]pyridin-3-yl)cyclopropanesulfonamide]
45 | CS(=O)(=O)Nc1nnc2cc(OCC3(C(F)(F)F)CCCC3)c(C3CC3)cn12 [Example 92, N-(6-cyclopropyl-7-((1-(trifluoromethyl)cyclopentyl)methoxy)-[1,2,4]triazolo[4,3-a]pyridin-3-yl)methanesulfonamide]

IC50 [nM] | Structure (SMILES)
7 | O=S(=O)(Nc1nnc2cc(COc3ccc(Cl)c(Cl)c3)c(C3CC3)cn12)C1CC1 [Example 94, N-(6-cyclopropyl-7-((3,4-dichlorophenoxy)methyl)-[1,2,4]-triazolo[4,3-a]pyridin-3-yl)cyclopropanesulfonamide]
19 | O=S(=O)(Nc1nnc2cc(COc3ccc(Cl)c(Cl)c3)c(C3CC3)cn12)N1CCC1 [Example 96, N-(6-cyclopropyl-7-((3,4-dichlorophenoxy)methyl)-[1,2,4]triazolo[4,3-a]pyridin-3-yl)azetidine-1-sulfonamide]
3 | O=S(=O)(Nc1nnc2cc(COc3cc(Cl)cc(OC(F)(F)F)c3)c(C3CC3)cn12)C1CC1 [Example 97, N-(7-((3-chloro-5-(trifluoromethoxy)phenoxy)methyl)-6-cyclopropyl-[1,2,4]triazolo[4,3-a]pyridin-3-yl)cyclopropanesulfonamide]
3 | CS(=O)(=O)Nc1nnc2cc(COc3cc(Cl)cc(OC(F)(F)F)c3)c(C3CC3)cn12 [Example 98, N-(7-((3-chloro-5-(trifluoromethoxy)phenoxy)methyl)-6-cyclopropyl-[1,2,4]triazolo[4,3-a]pyridin-3-yl)methanesulfonamide]
7 | Cc1cc(Cl)cc(OCc2cc3nnc(NS(C)(=O)=O)n3cc2C2CC2)c1 [Example 102, N-(7-((3-chloro-5-methylphenoxy)methyl)-6-cyclopropyl-[1,2,4]triazolo[4,3-a]pyridin-3-yl)methanesulfonamide]
6 | Cc1cc(Cl)cc(OCc2cc3nnc(NS(=O)(=O)C4CC4)n3cc2C2CC2)c1 [Example 103, N-(7-((3-chloro-5-methylphenoxy)methyl)-6-cyclopropyl-[1,2,4]triazolo[4,3-a]pyridin-3-yl)cyclopropanesulfonamide]
4 | CC1(S(=O)(=O)Nc2nnc3cc(COc4cc(Cl)cc(OC(F)(F)F)c4)c(C4CC4)cn23)CC1 [Example 104, N-(7-((3-chloro-5-(trifluoromethoxy)phenoxy)methyl)-6-cyclopropyl-[1,2,4]triazolo[4,3-a]pyridin-3-yl)-1-methylcyclopropane-1-sulfonamide]
5 | CC1(S(=O)(=O)Nc2nnc3cc(COc4cc(Cl)cc(Cl)c4)c(C4CC4)cn23)CC1 [Example 105, N-(6-cyclopropyl-7-((3,5-dichlorophenoxy)methyl)-[1,2,4]-triazolo[4,3-a]pyridin-3-yl)-1-methylcyclopropane-1-sulfonamide]
67 | CC1(COc2cc3nnc(NS(=O)(=O)C4CC4)n3cc2C2CC2)CCC(F)(F)CC1 [Example 108, N-(6-cyclopropyl-7-((4,4-difluoro-1-methylcyclohexyl)methoxy)-[1,2,4]triazolo[4,3-a]pyridin-3-yl)cyclopropanesulfonamide]
12 | CC1(COc2cc3nnc(NS(C)(=O)=O)n3cc2C2CC2)CCN(Cc2cc(Cl)cc(Cl)c2)CC1 [Example 110, N-(6-cyclopropyl-7-((1-(3,5-dichlorobenzyl)-4-methylpiperidin-4-yl)methoxy)-[1,2,4]triazolopyridin-3-yl)methanesulfonamide]
8 | CC1(COc2cc3nnc(NS(=O)(=O)C4CC4)n3cc2C2CC2)CCN(Cc2cc(Cl)cc(Cl)c2)CC1 [Example 111, N-(6-cyclopropyl-7-((1-(3,5-dichlorobenzyl)-4-methylpiperidin-4-yl)methoxy)-[1,2,4]triazolo[4,3-a]pyridin-3-yl)cyclopropanesulfonamide]
130 | CS(=O)(=O)Nc1nnc2cc(O[C@@H]3CCCN(Cc4ccc(F)cc4Cl)C3)c(C3CC3)cn12 [Example 112, (R)—N-(7-((1-(2-chloro-4-fluorobenzyl)piperidin-3-yl)oxy)-6-cyclopropyl-[1,2,4]triazolo[4,3-a]pyridin-3-yl)methanesulfonamide]
34 | O=S(=O)(Nc1nnc2cc(O[C@@H]3CCCN(Cc4ccc(F)cc4Cl)C3)c(C3CC3)cn12)C1CC1 [Example 113, (R)—N-(7-((1-(2-chloro-4-fluorobenzyl)piperidin-3-yl)oxy)-6-cyclopropyl-[1,2,4]triazolo[4,3-a]pyridin-3-yl)cyclopropanesulfonamide]
8 | CC1(COc2cc3nnc(NS(=O)(=O)C4CC4)n3cc2C2CC2)CCC2(CC1)CC2 [Example 114, N-(6-cyclopropyl-7-((6-methylspiro[2.5]octan-6-yl)methoxy)-[1,2,4]triazolo[4,3-a]pyridin-3-yl)cyclopropanesulfonamide]
16 | CC1(COc2cc3nnc(NS(C)(=O)=O)n3cc2C2CC2)CCN(C(c2ccccc2)c2ccccc2)CC1 [Example 116, N-(7-((1-benzhydryl-4-methylpiperidin-4-yl)methoxy)-6-cyclopropyl-[1,2,4]triazolo[4,3-a]pyridin-3-yl)methanesulfonamide]
13 | C[C@@H](c1cc(Cl)cc(Cl)c1)N1CCC(C)(COc2cc3nnc(NS(C)(=O)=O)n3cc2C2CC2)CC1 [Example 117, (S)—N-(6-cyclopropyl-7-((1-(1-(3,5-dichlorophenyl)ethyl)-4-methylpiperidin-4-yl)methoxy)-[1,2,4]triazolo[4,3-a]pyridin-3-yl)methanesulfonamide]
14 | C[C@H](c1cc(Cl)cc(Cl)c1)N1CCC(C)(COc2cc3nnc(NS(C)(=O)=O)n3cc2C2CC2)CC1 [Example 118, (R)—N-(6-cyclopropyl-7-((1-(1-(3,5-dichlorophenyl)ethyl)-4-methylpiperidin-4-yl)methoxy)-[1,2,4]triazolo[4,3-a]pyridin-3-yl)methanesulfonamide]
